According to US20210292330A1, “PYRROLIDINE-FUSED HETEROCYCLES” (Erasca, Inc., priority 2020, published 2021):

Target: T1, KRAS 4B G12C protein (Homo sapiens, UniProt P01116, G12C)
T1 construct: This protein contained 188 amino acids in total, including an N-terminal 6-Histidine tag; made in house; host or cells: E. coli BL21
Experiment: In vitro covalent adduct formation (CAF) assay by LC-MS
Type: binding
Settings: compound 10 μM, protein 5 μM, 22° C., percentage of protein bound by the compound
Outline: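 Recombinant His-TEV-tagged KRAS 4B G12C (residues 1-169, E. coli) at 5 μM in Tris-buffered saline pH 7.4 was incubated with 10 μM compound (4% DMSO) at 22° C. for one hour, sampling over time. Intact-mass LC-MS free:adduct ratios gave % protein bound; duplicates.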

CAF (10 minutes/60 minutes) at 10 micromolar: 10 minutes	CAF (10 minutes/60 minutes) at 10 micromolar: 60 minutes	SMILES
94%	95%	C=CC(=O)N1CCN(c2nc(OC[C@@H]3CCCN3C)nc3c2CN(Cc2ccccc2C(C)(C)C)C3)C[C@@H]1CC#N [1-187]
31%	78%	C=CC(=O)N1CCN(c2nc(OC[C@@H]3CCCN3C)nc3c2CN(Cc2c(C)cc(C)c(O)c2C)C3)C[C@@H]1CC#N [1-324]
7%	31%	C=CC(=O)N1CCN(c2nc(OC[C@@H]3CCCN3C)nc3c2CN(C2CCc4ccccc42)C3)[C@@H](C(N)=O)C1 (stereo partly shown) [1-193]
0%/ 0%	0%/ 0%	CN1CCC[C@H]1COc1nc2c(c(N3CCN(C(=O)C45CC4C5)[C@@H](CC#N)C3)n1)CN(Cc1ccccc1Cl)C2 (stereo partly shown) [1-317]
1%	11%	C=CC(=O)N1CCN(c2nc(OC[C@@H]3CCCN3C)nc3c2CN(Cc2cccc4ncccc24)C3)C[C@@H]1CC#N [1-318]
46%	84%	C=CC(=O)N1CCN(c2nc(OC[C@@H]3CCCN3C)nc3c2CN(Cc2cccc4ocnc24)C3)C[C@@H]1CC#N [1-204]
0%	2%	C=CC(=O)N1CCN(c2nc(OC[C@@H]3CCCN3C)nc3c2CN(C2CCc4ccccc42)C3)C[C@@H]1CSC (stereo partly shown) [1-195]
27%	80%	C=CC(=O)N1CCN(c2nc(OC[C@@H]3CCCN3C)nc3c2CN(S(=O)(=O)c2ccccc2C)C3)C[C@@H]1CC#N [1-237]
60%	82%	C=CC(=O)N1CCN(c2nc(OC[C@@H]3CCCN3CC)nc3c2CN(C2CCc4ccccc42)C3)C[C@@H]1CC#N (stereo partly shown) [1-175]
80%	87%	C=CC(=O)N1CCN(c2nc(OC[C@@H]3CCCN3C)nc3c2CN(C2CCc4ccc(O)c(Cl)c42)C3)C[C@@H]1CC#N (stereo partly shown) [1-342]
94%	96%	C=CC(=O)N1CCN(c2nc(OC[C@@H]3CCCN3C)nc3c2CN(Cc2cc(O)cc4ccccc24)C3)C[C@@H]1CC#N [1-180]
0%/ 0%	0%/ 0%	C=CC(=O)N1CCN(c2nc(O[C@@H]3CN(C)C[C@H]3OC)nc3c2CN(C2CCc4ccccc42)C3)C2COCC21 (stereo partly shown) [1-227]
0%/ 0%	0%/ 0%	C=CC(=O)N1CCN(c2nc(OC[C@@H]3CCCN3C)nc3c2CN(C2CCc4ccccc42)C3)C2CS(=O)(=O)CC21 (stereo partly shown) [1-210]
92%	94%	C=CC(=O)N1CCN(c2nc(OC[C@@H]3CCCN3C)nc3c2CN(Cc2c(CC)ccc(O)c2C)C3)C[C@@H]1CC#N [1-255]
62%	74%	C=CC(=O)N1CCN(c2nc(OC[C@@H]3CCCN3Cc3ccccc3)nc3c2CN(C2CCc4ccccc42)C3)C[C@@H]1CC#N (stereo partly shown) [1-199]
2%	12%	C#C[C@H]1CN(C(=O)C=C)CCN1c1nc(OC[C@@H]2CCCN2C)nc2c1CN(C1CCc3ccccc31)C2 (stereo partly drawn) [1-162, 1-[(3S)-4-[6-(2,3-dihydro-1H-inden-1-yl)-2-{[(2S)-1-methylpyrrolidin-2-yl]methoxy}-5H,7H-pyrrolo[3,4-d]pyrimidin-4-yl]-3-ethynylpiperazin-1-yl]prop-2-en-1-one]
0%/ 0%	0%/ 0%	C=C(F)C(=O)N1CCN(c2nc(OC[C@@H]3CCCN3C)nc3c2CN(Cc2cccc4ncccc24)C3)C[C@@H]1CC#N [1-319]
0%	9%	C=CC(=O)N1CCN(c2nc(O[C@@H]3CN(C)C[C@H]3OC)nc3c2CN(Cc2cc(O)ccc2Cl)C3)C2COCC21 (stereo partly shown) [1-336]
95%/ 95%	95%/ 95%	C=CC(=O)N1CCN(c2nc(OC[C@@H]3CCCN3C)nc3c2CN(Cc2c(Cl)ccc(O)c2C)C3)C[C@@H]1CC#N [1-312]
0%	7%	C=CC(=O)N1CCN(c2nc(OC[C@@H]3CCCN3C)nc3c2CN(C2CCc4ccccc42)C3)C[C@@H]1Cn1nccn1 (stereo partly shown) [1-215]
0%/ 0%	0%/ 0%	C=CC(=O)N1CCN(c2nc(OC[C@@H]3CCCN3C)nc3c2CN(C2CCc4ccccc42)C3)C[C@@H]1CNC(C)=O (stereo partly shown) [1-217]
82%	89%	C=CC(=O)N1CCN(c2nc(OC[C@@H]3CCCN3C(C)(C)C)nc3c2CN(C2CCc4ccccc42)C3)C[C@@H]1CC#N (stereo partly shown) [1-202]

The next lines start with the molecule.

SMILES	CAF (10 minutes/60 minutes) at 10 micromolar: 10 minutes	CAF (10 minutes/60 minutes) at 10 micromolar: 60 minutes
C=CC(=O)N1CCN(c2nc(OC[C@@H]3CCCN3C)nc3c2CN(C2CCc4ccccc42)C3)C[C@@H]1CO (stereo partly shown) [1-116]	2%	17%
C=CC(=O)N1CCN(c2nc(OC[C@@H]3CCCN3C)nc3c2CN(Cc2ccccc2Cl)C3)C[C@@H]1CC#N [1-75]	96%	97%
C=CC(=O)N1CCN(c2nc(OC[C@@H]3CCCN3C)nc3c2CN(Cc2c(Cl)cccc2OC(F)F)C3)CC1 [1-94]	0%/ 0%	0%/ 0%
C=C(F)C(=O)N1CCN(c2nc(OC[C@@H]3CCCN3C)nc3c2CN(C2CCc4ccccc42)C3)C[C@@H]1CC#N (stereo partly shown) [1-138]	38%	54%
C=CC(=O)N1CC2CCC1CN2c1nc(OC[C@@H]2CCCN2C)nc2c1CN(Cc1cc(O)ccc1Cl)C2 (stereo partly shown) [1-160]	34%	67%
C=CC(=O)N1CCN(c2nc(OC[C@@H]3CCCN3C)nc3c2CN(Cc2cnccc2Cl)C3)C[C@@H]1CC#N [1-119]	66%	94%
C=CC(=O)N1CCN(c2nc(OCC3CCCC3)nc3c2CN(Cc2c(F)cccc2OC)C3)C[C@@H]1CC#N [1-66]	1%	14%
C=CC(=O)N1CCN(c2nc(OC[C@@H]3CCCN3C)nc3c2CN(Cc2c(Cl)cccc2Cl)C3)C[C@@H]1CC#N [1-44]	98%	100%
C=CC(=O)N1CCN(c2nc(OC[C@@H]3CCCN3C)nc3c2CN(Cc2c(Cl)ccc4c2CCCO4)C3)C[C@@H]1CC#N [1-158]	49%	89%
C=CC(=O)N1CCN(c2nc(OC[C@@H]3CCCN3C)nc3c2CN(Cc2c(F)cccc2F)C3)C[C@@H]1CC#N [1-61]	–	NA/ 80%
C=CC(=O)N1CCN(c2nc(OC[C@@H]3CCCN3C)nc3c2CN(C2CCc4ccccc42)C3)C[C@H]1C#N (stereo partly shown) [1-145]	60%	74%
C=CC(=O)N1CCN(c2nc(OC[C@@H]3CCCN3C)nc3c2CN(Cc2cc(F)ccc2F)C3)C[C@@H]1CC#N [1-27]	68%	97%
C=CC(=O)N1CCN(c2nc(OC[C@@H]3CC(F)(F)CN3C)nc3c2CN(C2CCc4ccccc42)C3)C[C@@H]1CC#N (stereo partly shown) [1-133]	84%	90%
C=CC(=O)N1CCN(c2nc(OC[C@@H]3CCCN3C)nc3c2CN(Cc2c(C)cccc2C)C3)[C@@H](C)C1 [1-3]	6%	33%
C=CC(=O)N1CCN(c2nc(OC[C@@H]3C[C@H](F)CN3C)nc3c2CN(C2CCc4ccccc42)C3)C[C@@H]1CC#N (stereo partly shown) [1-128]	52%	63%
C=CC(=O)N1CCN(c2nc(OC[C@@H]3CCCN3C)nc3c2CN(Cc2c(C)cccc2OC(F)F)C3)C[C@@H]1CC#N [1-83]	97%	100%
C=CC(=O)N1CCN(c2nc(OC[C@@H]3CCCN3C)nc3c2CN(Cc2c(F)cccc2Cl)C3)C[C@@H]1CC#N [1-112]	98%	99%
C=CC(=O)N1CCN(c2nc(OC[C@@H]3CCCN3C)nc3c2CN(Cc2c(C)cccc2OC)C3)C[C@@H]1CC#N [1-59]	46%	98%
C=CC(=O)N1CCN(c2nc(OC[C@@H]3CCCN3C)nc3c2CN(Cc2cc(Cl)ccc2F)C3)C[C@@H]1CC#N [1-49]	81%	97%
C=CC(=O)N1CC2CC(=O)CC(C1)N2c1nc(OC[C@@H]2CCCN2C)nc2c1CN(C1CCc3ccccc31)C2 (stereo partly shown) [1-251]	0%/ 0%	0%/ 0%
C=CC(=O)N1CCN(c2nc(OC[C@@H]3CCC(=O)N3C)nc3c2CN(C2CCc4ccccc42)C3)C[C@@H]1CC#N (stereo partly shown) [1-122]	21%	57%
